The supplement of paper PMC10627819

How the values were obtained:
S. pneumoniae D39V [1] = test: fitness (endpoint OD595 vs no drug) (fraction); higher = more growth
How it was run: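 Fitness was defined as the optical density at the transition into stationary phase relative to the robust mean of no-drug control wells. Values were capped at 1. Cultures were started at OD595 0.01 in 384-well plates (30 µl, or 55 µl for S. pneumoniae) in TSB, LB Lennox or CY at 37 °C. OD595 was recorded every 30 min over 14 h, with the first reading subtracted as background.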

S. aureus DSM 20231 = test: Bliss interaction score (quartile over a dose matrix) (fitness difference); higher = more antagonism (negative = synergy)
How it was run: (§1)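 Combination data were used to infer fitness under each single drug. Fitness is the OD595 at entry into stationary phase divided by the robust mean of the plate's no-drug wells, with a cap of 1. The Bliss score is the observed minus the expected product fitness, summarised by quartiles over technical, biological and donor/recipient replicates.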

S. aureus Newman = test: as above
How it was run: as §1

B. subtilis 168 = test: as above
How it was run: as §1

S. pneumoniae D39V [2] = test: as above
How it was run: as §1
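Throughout, for Bliss interaction score (quartile over a dose matrix): first quartile when negative (synergy) and third quartile when positive (antagonism).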

O=C1CN(/N=C/c2ccc([N+](=O)[O-])o2)C(=O)N1 [Nitrofurantoin] + CC1=C\[C@@H](O)CC(=O)Cc2nc(co2)C(=O)N2CCC=C2C(=O)O[C@H](C(C)C)[C@H](C)/C=C/C(=O)NC\C=C\1 [Virginiamycin M1]
fitness, S. pneumoniae D39V [1]
Conditions	first compound 1.285 µg/mL	first compound 2 µg/mL	first compound 2.57 µg/mL	first compound 4 µg/mL	first compound 8 µg/mL
partner 0.5 µg/mL	0.99	–	0.955	–	–
partner 1 µg/mL	0.98	–	0.962	–	–
partner 2 µg/mL	0.972	0.867	0.949	0.879	0.872

fitness, S. pneumoniae D39V [1], one replicate
Conditions	partner 0.15 µg/mL	partner 0.3 µg/mL	partner 0.5 µg/mL	partner 1 µg/mL	partner 2 µg/mL
first compound 2 µg/mL	0.911	0.875	0.99	0.988	–
first compound 4 µg/mL	0.914	0.886	0.967	0.957	–
first compound 5.14 µg/mL	–	–	0.917	0.972	≥ 1
first compound 8 µg/mL	0.888	0.897	0.918	0.855	–

Conditions	Bliss interaction score
B. subtilis 168	0.129
S. aureus DSM 20231	0.0559
S. aureus Newman	0.0574
S. pneumoniae D39V [2]	0.084

O=C1CN(/N=C/c2ccc([N+](=O)[O-])o2)C(=O)N1 [Nitrofurantoin] + CCN(CC)CCOC(=O)c1ccc(N)cc1 [Procaine]
fitness, S. pneumoniae D39V [1]
Conditions	partner 85.5 µg/mL	partner 171 µg/mL	partner 342 µg/mL
first compound 1.285 µg/mL	0.994	0.987	0.994
first compound 2.57 µg/mL	0.972	0.964	0.934

fitness, S. pneumoniae D39V [1], one replicate
Conditions	first compound 2 µg/mL	first compound 4 µg/mL	first compound 5.14 µg/mL	first compound 8 µg/mL
partner 85.5 µg/mL	0.964	0.951	0.921	0.858
partner 171 µg/mL	≥ 1	0.979	0.943	0.908
partner 342 µg/mL	0.914	0.879	0.918	0.837

Conditions	Bliss interaction score
B. subtilis 168	0.106
S. aureus DSM 20231	0.0706
S. aureus Newman	0.0593
S. pneumoniae D39V [2]	0.0619

O=C1CN(/N=C/c2ccc([N+](=O)[O-])o2)C(=O)N1 [Nitrofurantoin] + CN1C2=CC=CC=C2N=C3C1=CC=CC3=O [Pyocyanin]
fitness, S. pneumoniae D39V [1]
Conditions	partner 0.325 µg/mL	partner 0.65 µg/mL	partner 1.3 µg/mL
first compound 1.285 µg/mL	0.979	0.919	0.634
first compound 2.57 µg/mL	0.94	0.796	0.444

fitness, S. pneumoniae D39V [1], one replicate
Conditions	first compound 2 µg/mL	first compound 4 µg/mL	first compound 5.14 µg/mL	first compound 8 µg/mL
partner 0.325 µg/mL	≥ 1	≥ 1	0.798	0.738
partner 0.65 µg/mL	≥ 1	0.982	0.637	0.814
partner 1.3 µg/mL	–	–	0.332	–

Conditions	Bliss interaction score
B. subtilis 168	0.0805
S. aureus DSM 20231	-0.0533
S. aureus Newman	-0.0575
S. pneumoniae D39V [2]	-0.199

O=C1CN(/N=C/c2ccc([N+](=O)[O-])o2)C(=O)N1 [Nitrofurantoin] + CN(C)c1cc(NC(=O)CNC(C)(C)C)c(O)c2c1C[C@H]1C[C@H]3[C@H](N(C)C)C(O)=C(C(N)=O)C(=O)[C@@]3(O)C(O)=C1C2=O [Tigecycline]
fitness, S. pneumoniae D39V [1]
Conditions	first compound 1.285 µg/mL	first compound 2 µg/mL	first compound 2.57 µg/mL	first compound 4 µg/mL	first compound 8 µg/mL
partner 0.65 µg/mL	0.939	0.96	0.932	0.971	0.921
partner 1.3 µg/mL	0.957	0.958	0.957	0.941	0.881
partner 2.6 µg/mL	0.949	0.919	0.936	0.937	0.9

S. pneumoniae D39V [1], first compound 5.14 µg/mL, one replicate
Conditions	fitness
partner 0.65 µg/mL	0.922
partner 1.3 µg/mL	0.92
partner 2.6 µg/mL	0.894

Conditions	Bliss interaction score
B. subtilis 168	0.178
S. aureus DSM 20231	0.0547
S. aureus Newman	0.0708
S. pneumoniae D39V [2]	0.0879

O=C1CN(/N=C/c2ccc([N+](=O)[O-])o2)C(=O)N1 [Nitrofurantoin] + CN(N=O)C(=O)N[C@@H](C=O)[C@@H](O)[C@H](O)[C@H](O)CO [Streptozotocin]
fitness, S. pneumoniae D39V [1]
Conditions	partner 1.2 µg/mL	partner 2.4 µg/mL	partner 4.8 µg/mL
first compound 1.285 µg/mL	0.928	0.94	0.939
first compound 2.57 µg/mL	0.939	0.952	0.957

fitness, S. pneumoniae D39V [1], one replicate
Conditions	first compound 2 µg/mL	first compound 4 µg/mL	first compound 5.14 µg/mL	first compound 8 µg/mL
partner 1.2 µg/mL	0.954	0.959	0.86	0.818
partner 2.4 µg/mL	0.961	≥ 1	0.919	0.842
partner 4.8 µg/mL	≥ 1	≥ 1	0.871	≥ 1

Conditions	Bliss interaction score
B. subtilis 168	0.0585
S. aureus DSM 20231	-0.034
S. aureus Newman	0.0906
S. pneumoniae D39V [2]	0.0714

O=C1CN(/N=C/c2ccc([N+](=O)[O-])o2)C(=O)N1 [Nitrofurantoin] + CN[C@@H]1[C@H](O)[C@H](NC)[C@H]2O[C@@]3(O)C(=O)C[C@@H](C)O[C@H]3O[C@@H]2[C@H]1O [Spectinomycin]
fitness, S. pneumoniae D39V [1]
Conditions	partner 4 µg/mL	partner 8 µg/mL	partner 16 µg/mL
first compound 1.285 µg/mL	0.96	0.889	0.829
first compound 2.57 µg/mL	0.935	0.917	0.829

fitness, S. pneumoniae D39V [1], one replicate
Conditions	first compound 2 µg/mL	first compound 4 µg/mL	first compound 5.14 µg/mL	first compound 8 µg/mL
partner 4 µg/mL	0.966	0.948	0.859	0.895
partner 8 µg/mL	0.892	0.864	0.865	0.879
partner 16 µg/mL	–	–	0.793	–

Conditions	Bliss interaction score
B. subtilis 168	-0.0552
S. aureus DSM 20231	-0.0743
S. aureus Newman	-0.0511
S. pneumoniae D39V [2]	0.0652
